Data published in patent US8987314B2, “Amide, urea or sulfone amide linked benzothiazole inhibitors of endothelial lipase” (Bristol-Myers Squibb Company, priority 2012, dated 2015).

Columns and labels:
Endothelial lipase (EL) = Endothelial lipase (EL) (Homo sapiens (Human), UniProt Q9Y5X9); assay: EL assay: endothelial lipase activity with fluorescent substrate A10070 in DMPG vesicles; assay type: biochemical
Method in brief: (§1)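 Vesicles prepared: A10070 dried with DMPG, resuspended in HEPES pH 8.0/NaCl/EDTA, sonicated on ice. Enzyme incubated with compound 30 min at 37° C. Reaction started with 1:10 diluted vesicles. Fluorescence (490/530 nm) followed 60 min; slope from 300–900 secs gives rate.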

hepatic lipase (HL) = hepatic lipase (HL) (Homo sapiens (Human), UniProt P11150); assay: HL assay: hepatic lipase activity with fluorescent substrate A10070 in DMPG vesicles; assay type: biochemical
Method in brief: as §1

Chain of Endothelial lipase (EL) (Q9Y5X9 21-500): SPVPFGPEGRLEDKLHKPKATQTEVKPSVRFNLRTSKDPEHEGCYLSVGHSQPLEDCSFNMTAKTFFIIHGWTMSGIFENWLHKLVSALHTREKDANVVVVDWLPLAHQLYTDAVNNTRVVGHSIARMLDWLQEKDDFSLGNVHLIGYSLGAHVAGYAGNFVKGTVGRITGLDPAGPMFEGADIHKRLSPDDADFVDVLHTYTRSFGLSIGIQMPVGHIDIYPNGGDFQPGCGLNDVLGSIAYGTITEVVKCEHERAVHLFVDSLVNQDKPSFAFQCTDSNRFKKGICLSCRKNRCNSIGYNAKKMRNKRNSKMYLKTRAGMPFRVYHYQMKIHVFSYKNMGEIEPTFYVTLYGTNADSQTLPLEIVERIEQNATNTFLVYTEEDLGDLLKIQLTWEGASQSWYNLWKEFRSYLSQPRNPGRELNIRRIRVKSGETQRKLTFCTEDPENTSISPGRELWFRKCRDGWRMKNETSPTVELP
Chain of hepatic lipase (HL) (P11150 23-499, species assumed): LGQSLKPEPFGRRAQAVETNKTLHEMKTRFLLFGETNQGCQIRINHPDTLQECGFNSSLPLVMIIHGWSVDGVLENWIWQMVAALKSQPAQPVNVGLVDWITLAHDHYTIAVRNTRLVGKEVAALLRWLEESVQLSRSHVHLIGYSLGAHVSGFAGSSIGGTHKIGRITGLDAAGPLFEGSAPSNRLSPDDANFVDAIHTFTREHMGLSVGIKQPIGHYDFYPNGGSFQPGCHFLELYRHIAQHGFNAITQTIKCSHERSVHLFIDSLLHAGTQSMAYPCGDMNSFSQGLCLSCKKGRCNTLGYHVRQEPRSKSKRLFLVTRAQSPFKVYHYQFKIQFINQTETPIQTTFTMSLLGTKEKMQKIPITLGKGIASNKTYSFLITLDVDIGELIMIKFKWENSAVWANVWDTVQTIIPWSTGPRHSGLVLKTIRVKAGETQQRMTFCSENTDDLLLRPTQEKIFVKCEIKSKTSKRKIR

Row | Structure (SMILES) | IC50 (Endothelial lipase (EL)) | IC50 (hepatic lipase (HL))
1 | Cc1nnc(CNC(=O)C(c2nc3ccc(-c4cccc(N(C)C)c4)cc3s2)S(=O)(=O)Cc2ccccc2)o1 (stereo not shown) [Example B255, 2-{6-[3-(dimethylamino)phen-yl]-1,3-benzothiazol-2-yl}-N-[(5-methyl-1,3,4-oxadiazol-2-yl)methyl]-2-phenylmethanesulfonyl-acetamide] | 0.225 µM | 0.0435 µM
2 | CS(=O)(=O)C(C(=O)NCc1cccc(S(N)(=O)=O)c1)c1nc2ccc(-c3ccccc3)cc2s1 (stereo not shown) [Example B256, 2-methanesulfonyl-2-(6-phenyl-1,3-benzothiazol-2-yl)-N-[(3-sulfamoylphen-yl)methyl]acetamide] | 0.19 µM | 0.0147 µM
3 | Cc1nnc(CNC(=O)C(c2nc3ccc(-c4ccc(C(=O)N5CC(F)(F)C5)cc4)cc3s2)S(C)(=O)=O)o1 (stereo not shown) [Example B257, 2-{6-[4-(3,3-difluoroazetidine-1-carbonyl)phen-yl]-1,3-benzothiazol-2-yl}-2-methanesulfonyl-N-[(5-methyl-1,3,4-oxadiazol-2-yl)methyl]a-cetamide] | 0.032 µM | 0.0533 µM
4 | COCCNC(=O)c1ccc(-c2cc3sc(C(C(=O)NCc4nnc(C)o4)S(=O)(=O)CCOC)nc3cc2F)cc1 (stereo not shown) [Example B258, 4-{5-fluoro-2-[(2-methoxy-ethanesulfonyl)({[(5-methyl-1,3,4-oxadiazol-2-yl)methyl]carbamoyl})meth-yl]-1,3-benzothiazol-6-yl}-N-(2-methoxyeth-yl)benzamide] | 0.0572 µM | 0.889 µM
5 | COCCS(=O)(=O)C(C(=O)NCc1nnc(C)o1)c1nc2cc(F)c(-c3ccc(C(=O)N(C)C)c(F)c3)cc2s1 (stereo not shown) [Example B259, 2-fluoro-4-{5-fluoro-2-[(2-methoxyethanesulfon-yl)({[(5-methyl-1,3,4-oxadiazol-2-yl)methyl]car-bamoyl})methyl]-1,3-benzothiazol-6-yl}-N,N-dimethylbenzamide] | 0.121 µM | 0.208 µM
6 | COCCS(=O)(=O)C(C(=O)NCc1nnc(C)o1)c1nc2cc(F)c(-c3ccc(C(=O)N4CC(C)(O)C4)cc3)cc2s1 (stereo not shown) [Example B260, 2-{5-fluoro-6-[4-(3-hydroxy-3-methyl-azetidine-1-carbonyl)phen-yl]-1,3-benzothiazol-2-yl}-2-(2-methoxyethane-sulfonyl)-N-[(5-methyl-1,3,4-oxadiazol-2-yl)methyl]acetamide] | 0.067 µM | 1.34 µM
7 | COCCS(=O)(=O)C(C(=O)NCc1nnc(C)o1)c1nc2cc(F)c(-c3ccc(C(=O)N4CCCC4)c(F)c3)cc2s1 (stereo not shown) [Example B261, 2-{5-fluoro-6-[3-fluoro-4-(pyrrolidine-1-carbonyl)phen-yl]-1,3-benzothiazol-2-yl}-2-(2-methoxy-ethanesulfonyl)-N-[(5-methyl-1,3,4-oxadiazol-2-yl)methyl]acetamide] | 0.101 µM | 0.765 µM
8 | COCCS(=O)(=O)C(C(=O)NCc1nnc(C)o1)c1nc2cc(F)c(-c3ccc(C(=O)N4CCCC4)cc3)cc2s1 (stereo not shown) [Example B262, 2-{5-fluoro-6-[4-(pyrrolidine-1-carbonyl)phen-yl]-1,3-benzothiazol-2-yl}-2-(2-methoxy-ethanesulfonyl)-N-[(5-methyl-1,3,4-oxadiazol-2-yl)methyl]acetamide] | 0.102 µM | 0.374 µM
9 | Cc1nnc(CNC(=O)C(c2nc3ccc(-c4ccc(C(=O)N5CC(C)(O)C5)cc4)cc3s2)S(C)(=O)=O)o1 (stereo not shown) [Example B263, 2-{6-[4-(3-hydroxy-3-methylazetidine-1-carbonyl)phenyl]-1,3-benzothiazol-2-yl}-2-methanesulfonyl-N-[(5-methyl-1,3,4-oxadiazol-2-yl)methyl]acetamide] | 0.077 µM | 10 µM
10 | COCCNC(=O)c1ccc(-c2ccc3nc(C(C(=O)NCc4nnc(C)o4)S(=O)(=O)CCOC)sc3c2)cc1 (stereo not shown) [Example B264, 4-{2-[(2-methoxyethane-sulfonyl)({[(5-methyl-1,3,4-oxadiazol-2-yl)meth-yl]carbamoyl})meth-yl]-1,3-benzothiazol-6-yl}-N-(2-methoxyethyl)ben-zamide] | 0.093 µM | 0.184 µM
11 | COCCS(=O)(=O)C(C(=O)NCc1nnc(C)o1)c1nc2ccc(-c3ccc(C(=O)N4CC(C)(O)C4)cc3)cc2s1 (stereo not shown) [Example B265, 2-{6-[4-(3-hydroxy-3-methylazetidine-1-carbonyl)phenyl]-1,3-benzothiazol-2-yl}-2-(2-methoxyethanesulfonyl)-N-[(5-methyl-1,3,4-oxadiazol-2-yl)methyl]a-cetamide] | 0.059 µM | 0.634 µM
12 | COCCNC(=O)c1ccc(-c2cc3sc(C(C(=O)NCc4nnc(C)o4)S(C)(=O)=O)nc3cc2F)cc1 (stereo not shown) [Example B266, 4-{5-fluoro-2-[methanesulfonyl({[(5-methyl-1,3,4-oxadiazol-2-yl)methyl]carbamoyl})meth-yl]-1,3-benzothiazol-6-yl}-N-(2-methoxyethyl)ben-zamide] | 0.0391 µM | 0.948 µM
13 | COCCNC(=O)c1ccc(-c2ccc3nc(C(C(=O)NCCS(N)(=O)=O)S(=O)(=O)C(C)C)sc3c2)cc1 (stereo not shown) [Example B267, N-(2-methoxyethyl)-4-{2-[(propane-2-sulfonyl)[(2-sul-famoylethyl)carbamoyl]meth-yl]-1,3-benzothiazol-6-yl}benzamide] | 0.0445 µM | 0.289 µM
14 | CC(C)S(=O)(=O)C(C(=O)NCCS(N)(=O)=O)c1nc2cc(C(F)(F)F)c(-c3ccc(C(=O)N4CCOCC4)cc3)cc2s1 (stereo not shown) [Example B268, 2-{6-[4-(morpholine-4-carbonyl)phenyl]-5-(trifluoromethyl)-1,3-benzothiazol-2-yl}-2-(propane-2-sulfonyl)-N-(2-sulfamoylethyl)acetamide] | 0.0092 µM | 0.406 µM
15 | COCCNC(=O)c1ccc(-c2cc3sc(C(C(=O)NCCS(N)(=O)=O)S(=O)(=O)C(C)C)nc3cc2C(F)(F)F)cc1 (stereo not shown) [Example B269, N-(2-methoxyethyl)-4-{2-[(propane-2-sulfonyl)[(2-sul-famoylethyl)carbamoyl]meth-yl]-5-(trifluoro-methyl)-1,3-benzothiazol-6-yl}benzamide] | 0.01 µM | 0.312 µM
16 | COCCS(=O)(=O)NS(=O)(=O)c1cccc(CNC(=O)C(c2nc3cc(-c4ccccc4)ccc3s2)S(=O)(=O)CCOC)c1 (stereo not shown) [Example B270, N-({3-[(2-methoxyethane-sulfonamido)sulfonyl]phen-yl}methyl)-2-(2-methoxyethanesulfonyl)-2-(5-phenyl-1,3-benzothiazol-2-yl)a-cetamide] | 0.205 µM | 0.212 µM
17 | CC(C)S(=O)(=O)C(C(=O)NCCS(N)(=O)=O)c1nc2ccc(-c3cccc(C(=O)N(C)C)c3)cc2s1 (stereo not shown) [Example B272, N,N-dimethyl-3-{2-[(propane-2-sulfonyl)[(2-sul-famoylethyl)carbamoyl]meth-yl]-1,3-benzothiazol-6-yl}benzamide] | 0.0353 µM | 0.612 µM
18 | Cc1cc2nc(C(C(=O)NCCS(N)(=O)=O)S(=O)(=O)Cc3ccccc3)sc2cc1-c1ccc(C(=O)OC(C)(C)C)cc1 (stereo not shown) [Example B273, tert-butyl 4-(5-methyl-2-{phenylmethanesulfonyl[(2-sulfamoylethyl)car-bamoyl]methyl}-1,3-benzothiazol-6-yl)benzoate] | 0.0014 µM | 0.003 µM
19 | Cc1cc2nc(C(C(=O)NCCS(N)(=O)=O)S(C)(=O)=O)sc2cc1-c1ccc(C(=O)OC(C)(C)C)cc1 (stereo not shown) [Example B274, tert-butyl 4-(2-{methanesulfonyl[(2-sul-famoylethyl)carbamoyl]meth-yl}-5-methyl-1,3-benzothiazol-6-yl)benzoate] | 0.0017 µM | 0.0051 µM
20 | CS(=O)(=O)C(C(=O)NCc1ccccc1S(N)(=O)=O)c1nc2ccc(-c3ccc(N4CCCCC4)cc3)cc2s1 (stereo not shown) [Example B275, 2-methanesulfonyl-2-{6-[4-(piperidin-1-yl)phenyl]-1,3-benzothiazol-2-yl}-N-[(2-sulfamoylphenyl)meth-yl]acetamide] | 0.173 µM | 0.218 µM
21 | CC(C)(C)OC(=O)c1ccc(-c2ccc3nc(C(C(=O)NCCS(N)(=O)=O)S(=O)(=O)Cc4ccccc4)sc3c2)cc1 (stereo not shown) [Example B276, tert-butyl 4-(2-{phenylmethanesulfonyl[(2-sulfamoylethyl)car-bamoyl]methyl)-1,3-benzothiazol-6-yl)benzoate] | 0.0011 µM | 0.0008 µM
22 | NS(=O)(=O)c1cccc(CNC(=O)C(c2nc3ccc(-c4ccc(C(=O)N5CCCC5)cc4)cc3s2)S(=O)(=O)Cc2ccccc2)c1 (stereo not shown) [Example B277, 2-phenylmethanesulfonyl-2-{6-[4-(pyrrolidine-1-carbonyl)phenyl]-1,3-benzothiazol-2-yl}-N-[(3-sulfamoylphenyl)methyl]a-cetamide] | 0.191 µM | 0.0849 µM
23 | NS(=O)(=O)c1cccc(CNC(=O)C(c2nc3ccc(-c4ccncc4Cl)cc3s2)S(=O)(=O)Cc2ccccc2)c1 (stereo not shown) [Example B278, 2-[6-(3-chloropyridin-4-yl)-1,3-benzothiazol-2-yl]-2-phenylmethanesulfonyl-N-[(3-sulfamoylphen-yl)methyl]acetamide] | 0.158 µM | 0.355 µM
24 | Cc1nnc(CNC(=O)C(c2nc3ccc(-c4ccc(C(=O)OC(C)(C)C)cc4)cc3s2)S(C)(=O)=O)s1 (stereo not shown) [Example B279, tert-butyl 4-{2-[methanesulfonyl({[(5-methyl-1,3,4-thiadiazol-2-yl)methyl]carbamoyl})meth-yl]-1,3-benzothiazol-6-yl}benzoate] | 0.0156 µM | 0.0028 µM
25 | CC(C)S(=O)(=O)C(C(=O)NCCS(N)(=O)=O)c1nc2c(F)cc(-c3cccc(C(=O)OC(C)(C)C)c3)cc2s1 (stereo not shown) [Example B280, tert-butyl 3-{4-fluoro-2-[(propane-2-sulfonyl)[(2-sul-famoylethyl)carbamoyl]meth-yl]-1,3-benzothiazol-6-yl}benzoate] | 0.0048 µM | 0.0029 µM
26 | COCCS(=O)(=O)C(C(=O)NCCS(N)(=O)=O)c1nc2ccc(-c3ccc(F)nc3)cc2s1 (stereo not shown) [Example B281, 2-[6-(6-fluoropyridin-3-yl)-1,3-benzothiazol-2-yl]-2-(2-methoxyethane-sulfonyl)-N-(2-sulfamoylethyl)acetamide] | 0.0179 µM | 0.11 µM
